Experimental data from the METLIN SMRT retention time set (Domingo-Almenara et al. 2019).

Test: gradient 5% acetonitrile 3 min, to 50% in 2 min, to 85% in 15 min, held 3 min, 100 µL/min
Settings: column: Zorbax Extend-C18 2.1 x 50 mm; eluents: water / acetonitrile, 0.1% formic acid
Procedure, shortened: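 Mixtures of ~100 pure standards were chromatographed on a Zorbax Extend-C18 column (2.1 × 50 mm, 1.8 μm) at 100 μL/min using water and acetonitrile, each with 0.1% formic acid. Detection used a quadrupole time-of-flight mass spectrometer in positive and negative ionization mode, and data collection spanned 3 months. Retention time was obtained from adduct peaks picked computationally and each checked manually.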

Structure (SMILES)	RP-LC retention time
CCc1nn2c(CNC(=O)c3cccnc3)c(-c3ccccc3)nc2s1	700 s
Cc1sc(NC(=O)COc2ccc(Cl)cc2)nc1-c1ccc2c(c1)NC(=O)C(C)O2 (stereo unspecified)	1020 s
CCn1cc(-c2nc(CC(=O)Nc3ccccc3Cl)cs2)c2cccnc21	1050 s
CC(C)c1ccc(NC(=O)CN2C(=O)C(C(=O)N3CCCC3)Sc3ccccc32)cc1 (stereo unspecified)	1140 s
CN1c2ccccc2C(=O)NC12CCN(C(=O)NCc1ccccc1)CC2	705 s
CC(=O)N(Cc1nn(C)c2c1CN(S(=O)(=O)Cc1ccccc1Cl)CC2)c1ccccc1	835 s
CC1=NS(=O)(=O)N(C)C=C1C(=O)OCc1cc(C)ccc1C	957 s
Cc1ccc(C)c(NC(=O)Cn2c(C)nc3onc(C)c3c2=O)c1	800 s
CCn1cc(S(=O)(=O)N2CCC(Cc3nc(-c4ccncc4)n[nH]3)C2)cn1 (stereo unspecified)	578 s
CCCn1c(=O)c(C)nc2cc(-c3noc(CN4C(=O)COc5ccc(Cl)cc54)n3)ccc21	1060 s
CC(C)C(=O)N1CCc2cc(C(=O)N(C)C)ccc21	678 s
O=C(NCCc1ccccc1)Nc1cnn(-c2ncc(N3CCCCC3)cn2)c1	799 s
CCNC(=O)Nc1ccc(OCC(=O)NC(C)c2ccc(OC)cc2)nc1 (stereo unspecified)	701 s
CCC(C)n1c(=O)c2ccccc2n(Cc2nc(-c3ccccc3Cl)no2)c1=O (stereo unspecified)	1170 s
CCCN1C(=O)COc2ccc(-c3noc(C4CC(=O)N(c5ccc(OC)cc5)C4)n3)cc21 (stereo unspecified)	951 s
COc1c(C(=O)NCc2ccc(C)o2)sc2ccc(Cl)cc12	1120 s
Cc1ccc(Sc2nccnc2N2CCCC(C(=O)N3CCN(c4ccc(F)cc4)CC3)C2)cc1 (stereo unspecified)	1230 s
CCCNC(=O)C1CCN(Cc2cc3ccccc3n2Cc2ccc(Cl)cc2)CC1	768 s
c1ccc(-n2ncc3c(Nc4ccc5c(c4)OCO5)nc(N4CCCC4)nc32)cc1	1350 s
CC(=O)N1C[C@@H](C(=O)NCc2cccs2)[C@H](c2nc(C)no2)C1	630 s

The remaining lines, values ahead:

RP-LC retention time	Structure (SMILES)
623 s	COCCCNS(=O)(=O)c1cc(-c2[nH]ncc2C(=O)N2CCCC2)oc1C
716 s	CCCNC(=O)Nc1cc2c(cc1N1CCC(C(=O)OCC)CC1)n(C)c(=O)n2C
694 s	CN1CCN(S(=O)(=O)c2cccc(-c3nc(-c4ccccc4)no3)c2)CC1
963 s	O=C(NC1(c2nc(-c3cccnc3)no2)CCCCC1)c1ccc(F)c(F)c1
909 s	O=C(c1c(F)cccc1F)N1CCc2nc(-c3ccccc3)ncc2C1
1000 s	CCN1C(=O)COc2ccc(-c3nc(NC(=O)c4ccccc4Cl)sc3C)cc21
749 s	COc1ccc(C(=O)N(Cc2cc(OC)c(OC)c(OC)c2)C2CCS(=O)(=O)C2)cc1 (stereo unspecified)
730 s	O=C(CCNc1c(-c2ccc(F)cc2)nc2cnccn12)N1CCCCC1
655 s	CNC(=O)C1CCN(S(=O)(=O)Cc2ccccc2)CC1
628 s	O=C(NCCCN1CCCC1)c1ccc2c(c1)nnn2Cc1ccccc1
578 s	CN(C)c1cc(OC2CCN(C(=O)c3cnn4cccnc34)C2)ncn1 (stereo unspecified)
712 s	CCCNC(=O)C1CCCN(C(=O)c2[nH]c(C)c(C(=O)OCC)c2C)C1 (stereo unspecified)
596 s	Cc1noc([C@@H]2CN(C(=O)c3cc(C4CC4)[nH]n3)C[C@H]2C(N)=O)n1
973 s	O=C(CCc1nc(CSc2nnc(-c3ccccc3)o2)no1)Nc1ccc(F)c(Cl)c1
570 s	O=C(C1CCN(c2cnc3nccnc3c2)CC1)N1CCN(c2ccccn2)CC1
952 s	Fc1ccc(Cn2cc(-c3noc(-c4ccc5cc[nH]c5c4)n3)nn2)cc1
